These results are taken from the OPERA property sets (Mansouri et al. 2018).

The melting point is the temperature of the solid-liquid transition. In general, boiling point refers to the temperature of boiling at a given pressure.

Settings in one data set: not given
The molecule `CC(C)(C)C1=CC(=O)C=C(C(C)(C)C)C1=O` had a melting point of 66 °C.

Molecule `CCCCOS(=O)OCCCC` gave a boiling point of 230 °C.

In the case of `Nc1ccnc(N)c1`, the melting point came to 107 °C.

`CC(C)CCOC=O` returned a boiling point of 124 °C, a log10 Henry constant (atm·m³/mol) of -3.17, a log10 vapour pressure (mmHg) of 1.18 and a melting point of -93.5 °C.

Take `O=C(c1cc(O)c(O)c(O)c1)c1ccc(O)c(O)c1O`: the melting point amounted to 270 °C.

`O=C(O)c1cccc(Cl)c1[N+](=O)[O-]` came in with a melting point of 238 °C.

Take `O=C(O)c1ccncc1`: the melting point came out at 315 °C.

In the case of `Nc1cc(Cl)c(Cl)c(Cl)c1Cl`, the log10 Koc (L/kg) amounted to 3.03.

As to `COc1cccc(C(=O)O)c1OC`, the log10 vapour pressure (mmHg) was -5.73 and the melting point was 123 °C.

Molecule `O=S(=O)(O)CCCNC1CCCCC1` yielded a melting point of 302 °C.

Molecule `CN(C)c1ccc2ccccc2c1` registered a boiling point of 305 °C and a melting point of 52.5 °C.

As for `CCC(CO)(CO)CO`, the ready biodegradability result was “not readily biodegradable”.

`O=CCC(O)[C@H](O)CO` (stereo in doubt) returned a melting point of 91 °C.

`CC(=O)N1CCCC(C)C1` (configuration not stated): the boiling point turned out to be 239 °C and the melting point was -13.6 °C.

Molecule `CCCNC(=O)OCC` displayed a boiling point of 192 °C.

In turn, `Sc1ccccc1Cl` registered a boiling point of 206 °C.

`CC(=O)c1cccc(Br)c1` registered a melting point of 7.5 °C.

Take `CC(C)Oc1cc(-n2nc(C(C)(C)C)oc2=O)c(Cl)cc1Cl`: the log10 Koc (L/kg) was determined as 3.51, the log10 vapour pressure (mmHg) is -6.95, the melting point is 90 °C and the ready biodegradability entry is given as “not readily biodegradable”.

For the molecule `C1CCCCCCCCCCCCCC1`, the melting point was determined as 61.3 °C.

The molecule `CCOc1cccc(C=O)c1` yielded a boiling point of 246 °C.

With `C/C=C/C(=O)OC`, the boiling point stood at 120 °C and the melting point was -42 °C.

Regarding `C=C(CC(=O)O)C(=O)O`, the melting point is 175 °C and the ready biodegradability entry is reported as “readily biodegradable”.

Molecule `CCCCCCCC(=O)CCC` returned a melting point of 4.5 °C.

On to `CCCCCCCCCCl`, for which the boiling point was found to be 204 °C, the log10 vapour pressure (mmHg) was -0.574 and the melting point is -39.4 °C.

In turn, `[Se]=C=[Se]` registered a boiling point of 126 °C and a melting point of -45.5 °C.

Take `COc1ncnc(NS(=O)(=O)c2ccc(N)cc2)c1OC`: the melting point is 192 °C.

With `C=CC=CC#N`, the boiling point is 136 °C and the melting point was -60 °C.

Consider `CCOC(=O)/C=C/C(=O)OCC`, for which the ready biodegradability entry was “readily biodegradable”.

Consider `COc1cc(C=O)cc(OC)c1O`, for which the melting point was found to be 113 °C and the ready biodegradability result is “readily biodegradable”.

Molecule `O=C(O)Cc1ccc(Br)cc1` displayed a melting point of 116 °C.

In the case of `Cn1c(=O)n(C)c(=O)n(C)c1=O`, the boiling point was determined as 274 °C and the melting point amounted to 176 °C.

As to `CCCn1cnc2c1c(=O)n(CCCCC(C)=O)c(=O)n2C`, the melting point is 69 °C.

`C=CCc1cc(OC)c2c(c1OC)OCO2` displayed a boiling point of 294 °C and a melting point of 29.5 °C.

As to `COc1cccc2c(=O)c3c(n(C)c12)O[C@@H](C(C)C)C3`, the melting point stood at 119 °C.

In turn, `FB(F)c1ccccc1` showed a boiling point of 98 °C and a melting point of -36.2 °C.

As for `NCCN1CCNCC1`, the boiling point came out at 220 °C and the ready biodegradability entry is “not readily biodegradable”.

The molecule `CCNCCN(C)C` came in with a boiling point of 134 °C.

The molecule `CCCCCCCCCCCCCCCC(C)O` (configuration not stated) yielded a melting point of 54 °C.

`C=CCC(C)C(C)C` (configuration not stated) showed a boiling point of 109 °C.

In turn, `c1ccc(-c2nc(-c3ccccc3)c(-c3ccccc3)[nH]2)cc1` registered a melting point of 275 °C.

As for `Cc1ccc(C(=O)c2ccccc2)cc1`, the melting point came out at 59.5 °C.

Molecule `Clc1cccc(-c2c(Cl)cc(Cl)cc2Cl)c1` showed a log10 Henry constant (atm·m³/mol) of -3.68.

In turn, `COC(=O)c1cc(C(=O)OC)c(C(=O)OC)cc1C(=O)OC` showed a melting point of 144 °C.

Staying with this data set, now noted: fish.
For `Nc1cc(Cl)c(Cl)c(Cl)c1Cl`, the log10 BCF was 2.21.

In turn, `CC(C)Oc1cc(-n2nc(C(C)(C)C)oc2=O)c(Cl)cc1Cl` gave a log10 BCF of 3.08 and a log10 biotransformation half-life (days) of 0.77.

In turn, `Brc1cc(Br)c(Br)c(Oc2c(Br)c(Br)c(Br)c(Br)c2Br)c1Br` displayed a log10 BCF of 5.57.
